# US10858335B2 (Rigel Pharmaceuticals, Inc., priority 2014, dated 2020)
# System: GDF8 signaling (p-SMAD-3 (Ser423/425))
# Test: AlphaScreen SureFire SMAD3 (p-Ser423/425) assay, GDF8-stimulated cells (GDF pSMAD)
# Type: cell-based
# Conditions: Mus musculus, MPC-11, MPC11; GDF8-stimulated; p-SMAD3 AlphaScreen; read-out: GDF pSMAD (MPC11) (inhibition of GDF8 signaling)
row,IC50 [nM],SMILES
1,226,"COc1cc(CNc2cnc(-c3ccc(F)c(C)c3)c(-c3ccc4ncsc4c3)c2)cc(OC)c1O [compound 366, 4-(((5-(Benzo[d]thiazol-6-yl)-6-(4-fluoro-3-methylphenyl)pyridin-3-yl)amino)methyl)-2,6-dimethoxyphenol]"
2,280,"COc1cc(CNc2cnc(-c3ccc(F)c(C)c3)c(-c3ccc4ncsc4c3)c2)cc(O)c1OC [compound 367, 5-(((5-(Benzo[d]thiazol-6-yl)-6-(4-fluoro-3-methylphenyl)pyridin-3-yl)amino)methyl)-2,3-dimethoxyphenol]"
3,189,"Cc1cc(-c2ncc(NCc3ccc(O)c(O)c3)cc2-c2ccc3ncsc3c2)ccc1F [compound 368, 4-(((5-(Benzo[d]thiazol-6-yl)-6-(4-fluoro-3-methylphenyl)pyridin-3-yl)amino)methyl)benzene-1,2-diol]"
4,193,"Cc1cc(-c2ncc(NCc3ccc(O)c(F)c3)cc2-c2ccc3ncsc3c2)ccc1F [compound 369, 4-(((5-(Benzo[d]thiazol-6-yl)-6-(4-fluoro-3-methylphenyl)pyridin-3-yl)amino)methyl)-2-fluorophenol]"
5,411,"Cc1cc(-c2ncc(NCc3ccc(O)c(C(F)(F)F)c3)cc2-c2ccc3ncsc3c2)ccc1F [compound 370, 4-(((5-(Benzo[d]thiazol-6-yl)-6-(4-fluoro-3-methylphenyl)pyridin-3-yl)amino)methyl)-2-(trifluoromethyl)phenol]"
6,737,"Cc1cc(-c2ncc(NCc3ccc(O)c(OC(F)(F)F)c3)cc2-c2ccc3ncsc3c2)ccc1F [compound 371, 4-(((5-(Benzo[d]thiazol-6-yl)-6-(4-fluoro-3-methylphenyl)pyridin-3-yl)amino)methyl)-2-(trifluoromethoxy)phenol]"
7,339,"Cc1cc(CNc2cnc(-c3ccc(F)c(C)c3)c(-c3ccc4ncsc4c3)c2)ccc1O [compound 372, 4-(((5-(Benzo[d]thiazol-6-yl)-6-(4-fluoro-3-methylphenyl)pyridin-3-yl)amino)methyl)-2-methylphenol]"
8,1200,"Cc1cc(-c2ncc(NCc3ccc(N4CCN(C)CC4)cc3)cc2-c2ccc3ncsc3c2)ccc1F [compound 373, 5-(Benzo[d]thiazol-6-yl)-6-(4-fluoro-3-methylphenyl)-N-(4-(4-methylpiperazin-1-yl)benzyl)pyridin-3-amine]"
9,495,"Cc1cc(-c2ncc(NCc3ccc(N4CCC(O)CC4)cc3)cc2-c2ccc3ncsc3c2)ccc1F [compound 374, 1-(4-(((5-(Benzo[d]thiazol-6-yl)-6-(4-fluoro-3-methylphenyl)pyridin-3-yl)amino)methyl)phenyl)piperidin-4-ol]"
10,152,"COc1ncnc2ccc(-c3cccnc3-c3ccc(F)c(C)c3)cc12 [compound 375, 6-(2-(4-Fluoro-3-methylphenyl)pyridin-3-yl)-4-methoxyquinazoline]"
11,276,"COc1ncnc2ccc(-c3cccnc3-c3cccc(C)c3)cc12 [compound 376, 4-Methoxy-6-(2-(m-tolyl)pyridin-3-yl)quinazoline]"
12,172,"COc1ncnc2ccc(-c3cccnc3-c3cccc(C4CC4)c3)cc12 [compound 377, 6-(2-(3-Cyclopropylphenyl)pyridin-3-yl)-4-methoxyquinazoline]"
13,395,"Cn1cnc2ccc(-c3cccnc3-c3cccc(O)c3)cc2c1=O [compound 379, 6-(2-(3-Hydroxyphenyl)pyridin-3-yl)-3-methylquinazolin-4(3H)-one]"
14,18500,"CC(=O)Nc1cccc(-c2ncccc2-c2ccc3ncn(C)c(=O)c3c2)c1 [compound 380, N-(3-(3-(3-Methyl-4-oxo-3,4-dihydroquinazolin-6-yl)pyridin-2-yl)phenyl)acetamide]"
15,2610,"Cn1cnc2ccc(-c3cccnc3-c3ccc(F)cc3)cc2c1=O [compound 381, 6-(2-(4-Fluorophenyl)pyridin-3-yl)-3-methylquinazolin-4(3H)-one]"
16,14800,"Cn1cnc2ccc(-c3cccnc3-c3cccc4cccnc34)cc2c1=O [compound 382, 3-Methyl-6-(2-(quinolin-8-yl)pyridin-3-yl)quinazolin-4(3H)-one]"
17,16700,"Cc1cc(-c2ncccc2-c2ccc3nc(N)ncc3c2)ccc1F [compound 383, 6-(2-(4-Fluoro-3-methylphenyl)pyridin-3-yl)quinazolin-2-amine]"
18,7790,"Cc1cccc(-c2ncccc2-c2ccc3nc(N)ncc3c2)c1 [compound 384, 6-(2-(m-Tolyl)pyridin-3-yl)quinazolin-2-amine]"
19,2000,"Cc1cccc(-c2ncccc2-c2ccc3ncnc(N4CCOCC4)c3c2)c1 [compound 386, 4-(6-(2-(m-Tolyl)pyridin-3-yl)quinazolin-4-yl)morpholine]"
20,1280,"c1cc(-c2ncccc2-c2ccc3ncnc(N4CCOCC4)c3c2)cc(C2CC2)c1 [compound 387, 4-(6-(2-(3-Cyclopropylphenyl)pyridin-3-yl)quinazolin-4-yl)morpholine]"
21,547,"O=c1nc[nH]c2ccc(-c3cccnc3-c3ccc(F)c(Cl)c3)cc12 [compound 388, 6-(2-(3-Chloro-4-fluorophenyl)pyridin-3-yl)quinazolin-4(1H)-one]"
22,187,"O=c1nc[nH]c2ccc(-c3cccnc3-c3cccc(Cl)c3)cc12 [compound 389, 6-(2-(3-Chlorophenyl)pyridin-3-yl)quinazolin-4(1H)-one]"

row,IC50 [nM],SMILES
1,516,"Cn1cnc2ccc(-c3cccnc3-c3ccc(F)c(Cl)c3)cc2c1=O [compound 390, 6-(2-(3-Chloro-4-fluorophenyl)pyridin-3-yl)-3-methylquinazolin-4(3H)-one]"
2,228,"Cn1cnc2ccc(-c3cccnc3-c3cccc(Cl)c3)cc2c1=O [compound 391, 6-(2-(3-Chlorophenyl)pyridin-3-yl)-3-methylquinazolin-4(3H)-one]"
3,127,"Cc1cc(-c2ncccc2-c2ccc3ncnc(N)c3c2)ccc1F [compound 392, 6-(2-(4-Fluoro-3-methylphenyl)pyridin-3-yl)quinazolin-4-amine]"
4,70,"Nc1ncnc2ccc(-c3cccnc3-c3cccc(Cl)c3)cc12 [compound 393, 6-(2-(3-Chlorophenyl)pyridin-3-yl)quinazolin-4-amine]"
5,119,"Nc1ncnc2ccc(-c3cccnc3-c3ccc(F)c(Cl)c3)cc12 [compound 394, 6-(2-(3-Chloro-4-fluorophenyl)pyridin-3-yl)quinazolin-4-amine]"
6,959,"COc1ncnc2ccc(-c3cccnc3-c3ccc(F)c(Cl)c3)cc12 [compound 395, 6-(2-(3-Chloro-4-fluorophenyl)pyridin-3-yl)-4-methoxyquinazoline]"
7,208,"Cc1cc(-c2ncccc2-c2ccc3cnc(N)nc3c2)ccc1F [compound 396, 7-(2-(4-Fluoro-3-methylphenyl)pyridin-3-yl)quinazolin-2-amine]"
8,9410,"CCN(CC)c1ncnc2ccc(-c3cccnc3-c3ccc(F)c(C)c3)cc12 [compound 397, N,N-Diethyl-6-(2-(4-fluoro-3-methylphenyl)pyridin-3-yl)quinazolin-4-amine]"
9,4650,"CCN(CC)c1ncnc2ccc(-c3cccnc3-c3cccc(O)c3)cc12 [compound 399, 3-(3-(4-(Diethylamino)quinazolin-6-yl)pyridin-2-yl)phenol]"
10,5810,"Cc1cc(-c2ncccc2-c2ccc3ncnc(NC(C)C)c3c2)ccc1F [compound 400, 6-(2-(4-Fluoro-3-methylphenyl)pyridin-3-yl)-N-isopropylquinazolin-4-amine]"
11,5890,"CC(C)Nc1ncnc2ccc(-c3cccnc3-c3ccc(F)c(Cl)c3)cc12 [compound 401, 6-(2-(3-Chloro-4-fluorophenyl)pyridin-3-yl)-N-isopropylquinazolin-4-amine]"
12,1670,"CCCCNc1ncnc2ccc(-c3cccnc3-c3ccc(F)c(C)c3)cc12 [compound 403, N-Butyl-6-(2-(4-fluoro-3-methylphenyl)pyridin-3-yl)quinazolin-4-amine]"
13,1030,"Cc1cc(-c2ncccc2-c2ccc3ncnc(NC4CC4)c3c2)ccc1F [compound 404, N-Cyclopropyl-6-(2-(4-fluoro-3-methylphenyl)pyridin-3-yl)quinazolin-4-amine]"
14,10700,"Cc1cc(-c2ncccc2-c2ccc3ncnc(NC4CCCC4)c3c2)ccc1F [compound 405, N-Cyclopentyl-6-(2-(4-fluoro-3-methylphenyl)pyridin-3-yl)quinazolin-4-amine]"
15,2790,"Cc1cc(-c2ncccc2-c2ccc3ncnc(Nc4ccc(C(N)=O)cc4)c3c2)ccc1F [compound 406, 4-((6-(2-(4-Fluoro-3-methylphenyl)pyridin-3-yl)quinazolin-4-yl)amino)benzamide]"
16,2470,"COc1ccc(Nc2ncnc3ccc(-c4cccnc4-c4ccc(F)c(C)c4)cc23)cc1 [compound 407, 6-(2-(4-Fluoro-3-methylphenyl)pyridin-3-yl)-N-(4-methoxyphenyl)quinazolin-4-amine]"
17,673,"Cc1cc(-c2ncccc2-c2ccc3ncnc(Nc4ccc(N5CCOCC5)cc4)c3c2)ccc1F [compound 408, 6-(2-(4-Fluoro-3-methylphenyl)pyridin-3-yl)-N-(4-morpholinophenyl)quinazolin-4-amine]"
18,7950,"Cc1cc(-c2ncccc2-c2ccc3ncnc(Nc4ccc(C#N)cc4)c3c2)ccc1F [compound 409, 4-((6-(2-(4-Fluoro-3-methylphenyl)pyridin-3-yl)quinazolin-4-yl)amino)benzonitrile]"
19,4130,"Cc1cc(-c2ncccc2-c2ccc3ncnc(Nc4cccc(C(N)=O)c4)c3c2)ccc1F [compound 410, 3-((6-(2-(4-Fluoro-3-methylphenyl)pyridin-3-yl)quinazolin-4-yl)amino)benzamide]"
20,72.5,"Nc1ncnc2ccc(-c3cccnc3-c3cccc(C4CC4)c3)cc12 [compound 411, 6-(2-(3-Cyclopropylphenyl)pyridin-3-yl)quinazolin-4-amine]"
21,3330,"Cc1cc(-c2ncccc2-c2ccc3ncnc(NCCc4cccnc4)c3c2)ccc1F [compound 414, 6-(2-(4-Fluoro-3-methylphenyl)pyridin-3-yl)-N-(2-(pyridin-3-yl)ethyl)quinazolin-4-amine]"
